Assays:
Assay type in all cases: cell-based
[1] = tested on: Pfeiffer cells; assay: Human diffuse large B-cell lymphoma cell line Pfeiffer proliferation suppression test; conditions: 144 h, compound 10 μM, 3 days + re-plating with compound 3 days, WST-8, read-out: cell survival rate (% of control) Pfeiffer
Text: Example 52: Human Diffuse Large B-Cell Lymphoma Cell Line Pfeiffer Proliferation Suppression Test
Pfeiffer cells (ATCC, CRL-2632) were suspended in medium B, and diluted as appropriate with 0.4% trypan blue solution (Sigma-Aldrich Co. LLC.). The number of viable cells was counted with a hemocytometer (Funakoshi Co., Ltd.). A cell suspension obtained by diluting with medium B such that the value obtained was 1.3×10^5 cells/mL was dispensed into a Falcon 96 well flat bottom plate (Corning Incorporated) at 75 μL/well, and culture was started at 37° C. under 5% CO2 stream. The next day, a solution obtained by diluting 4 mM DMSO solution of the test compound 100-fold with medium B was added by 25 μL to each well (final concentration of test compound 10 μM). 25 μL of a solution obtained by diluting DMSO 100-fold with medium B was added to the control well. After culturing at 37° C. in a 5% CO2 stream for 3 days, the cell culture medium was uniformly suspended with a multi channel pipette, 14 μL per well was transferred into another new Falcon 96 well flat bottom plate. A solution obtained by diluting 4 mM DMSO solution of the same test compound as the first time 400-fold with medium B was added by 86 μL to a total amount of 100 μL (final concentration of test compound 10 μM). After culturing at 37° C. in a 5% CO2 stream for 3 days, the cell proliferation activity was measured according to the instruction manual attached to WST-8 Kit (KISHIDA CHEMICAL Co., Ltd.).

[2] = tested on: Daudi cells; assay: Human Burkitt lymphoma cell line Daudi proliferation suppression test; conditions: 72 h, compound 10 μM, 3 days, WST-8, read-out: cell survival rate (% of control) Daudi
Text: Example 54: Human Burkitt Lymphoma Cell Line Daudi Proliferation Suppression Test
Daudi cells (National Institutes of Biomedical Innovation, Health and Nutrition (NIBIOHN), JCRB9071) were suspended in medium B, and diluted as appropriate with 0.4% trypan blue solution (Sigma-Aldrich Co. LLC.). The number of viable cells was counted with a hemocytometer (ERMA INC.). A cell suspension obtained by diluting with medium B such that the value obtained was 1.3×10^5 cells/mL was dispensed into a Falcon 96 well flat bottom plate (Corning Incorporated) at 75 μL/well, and culture was started at 37° C. under 5% CO2 stream. The next day, a solution obtained by diluting 4 mM DMSO solution of the test compound 100-fold with medium B was added by 25 μL to each well (final concentration of test compound 10 μM). 25 μL of a solution obtained by diluting DMSO 100-fold with medium B was added to the control well. After culturing at 37° C. in a 5% CO2 stream for 3 days, the cell proliferation activity was measured according to the instruction manual attached to WST-8 Kit (KISHIDA CHEMICAL Co., Ltd.).

[3] = tested on: Kasumi-7 cells; assay: Human acute lymphoblastic leukemia cell line Kasumi-7 proliferation suppression test; conditions: 72 h, compound 10 μM, 3 days, WST-8, read-out: cell survival rate (% of control) Kasumi-7
Text: Example 55: Human Acute Lymphoblastic Leukemia Cell Line Kasumi-7 Proliferation Suppression Test
Kasumi-7 cells (NIBIOHN, JCRB1401) were suspended in 20% fetal calf serum (Thermo Fisher Scientific, Inc.)-containing RPMI1640 medium (ATCC, hereinafter abbreviated as medium C), and diluted as appropriate with 0.4% trypan blue solution (Sigma-Aldrich Co. LLC.). The number of viable cells was counted with a hemocytometer (Funakoshi Co., Ltd.). A cell suspension obtained by diluting with medium C such that the value obtained was 1.3×10^5 cells/mL was dispensed into a Falcon 96 well flat bottom plate (Corning Incorporated) at 75 μL/well, and culture was started at 37° C. under 5% CO2 stream. The next day, a solution obtained by diluting 4 mM DMSO solution of the test compound 100-fold with medium C was added by 25 μL to each well (final concentration of test compound 10 μM). 25 μL of a solution obtained by diluting DMSO 100-fold with medium C was added to the control well. After culturing at 37° C. in a 5% CO2 stream for 3 days, the cell proliferation activity was measured according to the instruction manual attached to WST-8 Kit (KISHIDA CHEMICAL Co., Ltd.).

| Structure (SMILES) | viability at 10 µM [1] [%] | viability at 10 µM [2] [%] | viability at 10 µM [3] [%] |
| --- | --- | --- | --- |
| O=C1CCC(n2cc(-c3cscc3OC3CCCC3)nn2)C(=O)N1 (stereo not drawn) [compound 27, 3-{4-[4-(cyclopentyloxy)thiophen-3-yl]-1H-1,2,3-triazol-1-yl}piperidine-2,6-dione] | 98 | 70 | 83 |
| O=C1CCC(n2cc(-c3cscc3OCC3CC3)nn2)C(=O)N1 (stereo not drawn) [compound 28, 3-{4-[4-(cyclopropylmethoxy)thiophen-3-yl]-1H-1,2,3-triazol-1-yl}piperidine-2,6-dione] | 91 | 78 | 75 |
| O=C1CCC(n2cc(-c3cscc3OCC3CCCC3)nn2)C(=O)N1 (stereo not drawn) [compound 29, 3-{4-[4-(cyclopentylmethoxy)thiophen-3-yl]-1H-1,2,3-triazol-1-yl}piperidine-2,6-dione] | 110 | 79 | 84 |
| O=C1CCC(n2cc(-c3cscc3OCC3CCCCC3)nn2)C(=O)N1 (stereo not drawn) [compound 30, 3-{4-[4-(cyclohexylmethoxy)thiophen-3-yl]-1H-1,2,3-triazol-1-yl}piperidine-2,6-dione] | 99 | 76 | 62 |
| COc1ccc(COc2cscc2-c2cn(C3CCC(=O)NC3=O)nn2)cc1 (stereo not drawn) [compound 31, 3-{4-[4-(4-methoxybenzyloxy)thiophen-3-yl]-1H-1,2,3-triazol-1-yl}piperidine-2,6-dione] | 82 | 39 | 43 |
| O=C1CCC(n2cc(-c3cscc3OCc3ccccc3)nn2)C(=O)N1 (stereo not drawn) [compound 32, 3-{4-[4-(benzyloxy)thiophen-3-yl]-1H-1,2,3-triazol-1-yl}piperidine-2,6-dione] | 60 | 23 | 36 |
| O=C1CCC(n2cc(-c3cscc3OCc3ccncc3)nn2)C(=O)N1 (stereo not drawn) [compound 33, 3-{4-[4-(pyridin-4-ylmethoxy)thiophen-3-yl]-1H-1,2,3-triazol-1-yl}piperidine-2,6-dione] | 71 | 27 | 38 |
| O=C1CCC(n2cc(-c3cscc3OCc3ccccn3)nn2)C(=O)N1 (stereo not drawn) [compound 34, 3-{4-[4-(pyridin-2-ylmethoxy)thiophen-3-yl]-1H-1,2,3-triazol-1-yl}piperidine-2,6-dione] | 104 | 48 | 45 |
| O=C1CCC(n2cc(-c3cscc3OCc3cccnc3)nn2)C(=O)N1 (stereo not drawn) [compound 35, 3-{4-[4-(pyridin-3-ylmethoxy)thiophen-3-yl]-1H-1,2,3-triazol-1-yl}piperidine-2,6-dione] | 104 | 67 | 53 |
| O=C1CCC(n2cc(-c3cscc3OCc3ccc(CN4CCOCC4)cc3)nn2)C(=O)N1 (stereo not drawn) [compound 36, 3-(4-{4-[4-(morpholinomethyl)benzyloxy]thiophen-3-yl}-1H-1,2,3-triazol-1-yl)piperidine-2,6-dione] | 34 | 6 | 19 |
| COCc1ccc(COc2cscc2-c2cn(C3CCC(=O)NC3=O)nn2)cc1 (stereo not drawn) [compound 37, 3-(4-{4-[4-(methoxymethyl)benzyloxy]thiophen-3-yl}-1H-1,2,3-triazol-1-yl)piperidine-2,6-dione] | 71 | 20 | 38 |
| C[C@@H]1CN(Cc2ccc(COc3cscc3-c3cn(C4CCC(=O)NC4=O)nn3)cc2)C[C@H](C)O1 (stereo partly drawn) [compound 38, 3-{4-[4-(4-{[(2S,6R)-2,6-dimethylmorpholino]methyl}benzyloxy)thiophen-3-yl]-1H-1,2,3-triazol-1-yl}piperidine-2,6-dione] | 29 | 7 | 23 |
| O=C1CCC(n2cc(-c3cscc3OCc3cccc(CN4CCOCC4)c3)nn2)C(=O)N1 (stereo not drawn) [compound 39, 3-(4-{4-[3-(morpholinomethyl)benzyloxy]thiophen-3-yl}-1H-1,2,3-triazol-1-yl)piperidine-2,6-dione] | 69 | 30 | 36 |
| O=C1CCC(n2cc(-c3cscc3OCc3ccccc3CN3CCOCC3)nn2)C(=O)N1 (stereo not drawn) [compound 40, 3-(4-{4-[2-(morpholinomethyl)benzyloxy]thiophen-3-yl}-1H-1,2,3-triazol-1-yl)piperidine-2,6-dione] | 91 | 46 | 41 |
| Cl.O=C1CCC(n2cc(-c3cscc3OCc3ccc(CN4CCCC4)cc3)nn2)C(=O)N1 (stereo not drawn) [compound 41, 3-(4-{4-[4-(pyrrolidin-1-ylmethyl)benzyloxy]thiophen-3-yl}-1H-1,2,3-triazol-1-yl)piperidine-2,6-dione hydrochloride] | 72 | 24 | 26 |
| Cl.O=C1CCC(n2cc(-c3cscc3OCc3ccc(CN4CCCCC4)cc3)nn2)C(=O)N1 (stereo not drawn) [compound 42, 3-(4-{4-[4-(piperidin-1-ylmethyl)benzyloxy]thiophen-3-yl}-1H-1,2,3-triazol-1-yl)piperidine-2,6-dione hydrochloride] | 63 | 17 | 26 |
| O=C1CCC(n2cc(-c3cscc3OCc3ccc(Cl)cc3)nn2)C(=O)N1 (stereo not drawn) [compound 43, 3-{4-[4-(4-chlorobenzyloxy)thiophen-3-yl]-1H-1,2,3-triazol-1-yl}piperidine-2,6-dione] | 89 | 36 | 42 |
| CC(Oc1cscc1-c1cn(C2CCC(=O)NC2=O)nn1)c1ccccc1 (stereo not drawn) [compound 44, 3-{4-[4-(1-phenylethoxy)thiophen-3-yl]-1H-1,2,3-triazol-1-yl}piperidine-2,6-dione] | 94 | 41 | 40 |
| Cl.O=C1CCC(n2cc(-c3cscc3OCc3ccc(CCN4CCOCC4)cc3)nn2)C(=O)N1 (stereo not drawn) [compound 45, 3-(4-{4-[4-(2-morpholinoethyl)benzyloxy]thiophen-3-yl}-1H-1,2,3-triazol-1-yl)piperidine-2,6-dione hydrochloride] | 78 | 40 | 39 |
| CN(C)Cc1ccc(COc2cscc2-c2cn(C3CCC(=O)NC3=O)nn2)cc1.Cl (stereo not drawn) [compound 46, 3-[4-(4-{4-[(dimethylamino)methyl]benzyloxy}thiophen-3-yl)-1H-1,2,3-triazol-1-yl]piperidine-2,6-dione hydrochloride] | 84 | 29 | 35 |
| O=C1CCC(n2cc(-c3cscc3OCc3cc4ccccc4s3)nn2)C(=O)N1 (stereo not drawn) [compound 47, 3-{4-[4-(benzo[b]thiophen-2-ylmethoxy)thiophen-3-yl]-1H-1,2,3-triazol-1-yl}piperidine-2,6-dione] | 99 | 87 | 56 |
| O=C1CCC(n2nnc(-c3ccsc3)c2Br)C(=O)N1 (stereo not drawn) [compound 48, 3-[5-bromo-4-(thiophen-3-yl)-1H-1,2,3-triazol-1-yl]piperidine-2,6-dione] | 98 | 80 | 95 |

Reference: US11299485B2, “Thiophene derivative and use thereof” (FUJIMOTO CO., LTD., priority 2018, dated 2022)
